Results reported in patent US6054484A, “Transparent aqueous solution of diclofenac sodium and medicinal compositions with the use of the same” (Tsumura & Co., priority 1996, dated 2000).

How the values were obtained:
[1] = cited from earlier work
[2] = Solubility of drug substance in water, oil ingredients and fatty acid diethanolamide; assay type: physicochemical

Structure (SMILES) | solubility in water [1] | dissolution in coconut fatty acid diethanolamide ([2]; coconut fatty acid diethanolamide alone) | solubility in oil ingredients ([2]; in oil ingredients) | dissolution in liquid mixture of coconut fatty acid diethanolamide with water ([2]; liquid mixture with water) | solubility in water (in words) [1]
O=C(O)Cc1ccccc1Nc1c(Cl)cccc1Cl [diclofenac sodium] | about 1.5 wt. % | does not dissolve | low solubility | at a high concentration and stably | –
COc1ccc2c(c1)c(CC(=O)O)c(C)n2C(=O)c1ccc(Cl)cc1 [indomethacin] | – | – | – | – | insoluble in water
